≈ marks a conversion by molar mass, not a printed value. Entries after “also recorded” stand apart in the source; their conditions may differ. Where a name gives a salt, the structure may show the parent alone.
What was measured:
[1] = Storage stability of crystalline forms (XRPD, HPLC); type: physicochemical; details: for Purity after storage: initial purity 99.24%; for purities after storage: all storage conditions tested for the form
Experimental: The hydrochloride Form CS1 prepared by the present disclosure was stored under 25° C./60% RH and 40° C./75% RH for 1 month. The crystalline forms were checked by XRPD before and after storing.
(§1) Three samples of hydrochloride Form CS3 prepared by the present disclosure were stored in open dishes under conditions of 25° C./60% RH, 40° C./75% RH for 1 month, and 60° C./75% relative humidity for 2 weeks. The crystalline forms and the chemical purities were checked by XRPD and HPLC before and after storing.
as §1, with “CS4” for “CS3”, “RH for two weeks,” for “RH,”, “HPLC respectively” for “HPLC”
[…] The crystalline forms and chemical purities were checked by HPLC and XRPD before and after storing.

[2] = Dynamic solubility in FaSSIF and FeSSIF (Example 22); type: physicochemical
Experimental: The crystallite form CS3 of compound I of the present disclosure and free form Form A in CN105849100A are prepared into saturated solutions in pH-5.0 FeSSIF (Fed state simulated intestinal fluids) and pH=6.5 FaSSIF (Fasted state simulated intestinal fluids). The content of the sample in the saturated solution was determined by high performance liquid chromatography (HPLC) after equlibrated for 1, 4 and 24 hours.

[3] = Dynamic solubility, saturated solution in pure water (Example 17); type: physicochemical; details: for Solubility: pure water
Experimental: Hydrochloride Form CS4 of the present disclosure and hydrochloride Form A in CN105849100A were prepared into saturated solution in pure water. The content of the sample in the saturated solution was determined by high performance liquid chromatography (HPLC) after 1, 4 and 24 hours. The solubility data of hydrochloride Form CS4 of the present disclosure and hydrochloride Form A in CN105849100A are shown in Table 12.

[4] = Dynamic solubility in water (Example 11); type: physicochemical
Experimental: 12 mg of hydrochloride Form CS3 prepared in the present disclosure and the hydrochloride Form A in CN105849100A were accurately weighed and placed in vials, followed by adding 1.2 mL of water. The samples were rotated at 30 rpm on a rotator and sampled at 1 hour, 4 hours, and 24 hours. After centrifugation with 0.45 urn polytetrafluoroethylene (PTFE) filters, the filtrates were collected for HPLC analysis.

[5] = Mechanical stability (grinding, XRPD); type: physicochemical; details: ground in an agate mortar for about 2 minutes
Experimental: About 10 mg of hydrochloride Form CS1 of the present disclosure was taken and ground in an agate mortar for about 2 minutes.

[6] = Phase I studies; cited from earlier work
[7] = test system: influenza virus infection; details: Completed Phase IIa studies; cited from earlier work
[8] = 25° C./60% RH, Five months, open dish
[9] = 40° C./75% RH, Five months, open dish

With `O=C(O)[C@H]1C2CCC(CC2)[C@@H]1Nc1nc(-c2c[nH]c3ncc(F)cc23)ncc1F` [Form CS3 of Compound I] the “Change of crystalline form” value [1, 8] was “Five months Unchanged”, the Purity after storage [1, 8] was 99.28% and the “time for which the form is stable” value ([1]; 25° C./60% RH, listed as Crystalline form CS3 of compound I) was “at least 5 months”. For the same compound, the “time for which the form is stable” value ([1]; 25° C./60% RH, listed as crystalline form CS3 of compound I) was “at least 5 months”, the “Change of crystalline form” value [1, 9] was “Five months Unchanged” and the Purity after storage [1, 9] was 99.26%. For the same compound, the “time for which the form is stable” value ([1]; 40° C./75% RH, listed as Crystalline form CS3 of compound I) was “at least 5 month”, the “time for which the form is stable” value ([1]; 40° C./75% RH, listed as crystalline form CS3 of compound I) was “at least 5 month” and the “Solubility FaSSIF” value ([2]; FaSSIF pH=6.5, 1 hour) was 110 µg/mL (≈ 275 µM). The “Solubility FaSSIF” value ([2]; FaSSIF pH=6.5, 4 hours) was 210 µg/mL (≈ 526 µM), the “Solubility FaSSIF” value ([2]; FaSSIF pH=6.5, 24 hours) was 200 µg/mL (≈ 501 µM) and the “solubility, times higher than Form A in CN105849100A” value ([2]; FaSSIF, 1, 4 and 24 hours) was 6-16 times. The “Solubility FeSSIF” value ([2]; FeSSIF pH 5.0, 1 hour) was 210 µg/mL (≈ 526 µM), the “Solubility FeSSIF” value ([2]; FeSSIF pH 5.0, 4 hours) was 290 µg/mL (≈ 726 µM) and the “Solubility FeSSIF” value ([2]; FeSSIF pH 5.0, 24 hours) was 250 µg/mL (≈ 626 µM). The “solubility, times higher than Form A in CN105849100A” value ([2]; FeSSIF, 1, 4 and 24 hours) was 4-11 times.
With `O=C(O)[C@H]1C2CCC(CC2)[C@@H]1Nc1nc(-c2c[nH]c3ncc(F)cc23)ncc1F` [Hydrochloride Form A in CN105849100A, reference compound] the Solubility ([3]; 1 hour) was 0.3 µg/mL, the Solubility ([3]; 4 hours) was 0.9 µg/mL and the Solubility ([3]; 24 hours) was 2.5 µg/mL. For the same compound, the Solubility ([4]; 1 hour) was 0.3 µg/mL, the Solubility ([4]; 4 hours) was 0.9 µg/mL and the Solubility ([4]; 24 hours) was 2.5 µg/mL.
With `O=C(O)[C@H]1C2CCC(CC2)[C@@H]1Nc1nc(-c2c[nH]c3ncc(F)cc23)ncc1F` [Hydrochloride Form CS3] the “Change of crystalline form” value ([1]; 25° C./60% RH, Seven months, open dish) was “Unchanged”, the “time for which the form is stable” value ([1]; 25° C./60% RH, listed as hydrochloride Form CS3) was “at least 7 months” and the “time for which the form is stable” value ([1]; 40° C./75% RH, listed as hydrochloride Form CS3) was “at least 1 month”. For the same compound, the “time for which the form is stable” value ([1]; 60° C./75% RH) was “at least 2 weeks”, the “Change of crystalline form” value ([1]; 60° C./75% RH, Two weeks, open dish) was “Unchanged” and the purities after storage [1] was “above 98%”. The Solubility ([4]; 1 hour) was 2.5 µg/mL, the Solubility ([4]; 4 hours) was 46.0 µg/mL and the Solubility ([4]; 24 hours) was 15.0 µg/mL. For the same compound, the “solubility, times higher than hydrochloride Form A in CN105849100A” value ([4]; after 1, 4 and 24 hours) was 6-51 times.
In the case of `O=C(O)[C@H]1C2CCC(CC2)[C@@H]1Nc1nc(-c2c[nH]c3ncc(F)cc23)ncc1F` [Hydrochloride Form CS4], the “Change of crystalline form” value ([1]; 25° C./60% RH, Two weeks, open dish) is reported as “Unchanged”, the “time for which the form is stable” value ([1]; 25° C./60% RH, listed as hydrochloride Form CS4) is reported as “at least 2 weeks” and the “time for which the form is stable” value ([1]; 40° C./75% RH, listed as hydrochloride Form CS4) is reported as “at least 1 month”. For the same compound, the purities after storage [1] was “above 98%”, the Solubility ([3]; 1 hour) was 85 µg/mL and the Solubility ([3]; 4 hours) was 75 µg/mL. The Solubility ([3]; 24 hours) was 94 µg/mL and the “solubility, times higher than hydrochloride Form A of CN105849100A” value ([3]; water, after 1, 4 and 24 hours) was 38-283 times.
For `O=C(O)[C@H]1C2CCC(CC2)[C@@H]1Nc1nc(-c2c[nH]c3ncc(F)cc23)ncc1F` [Hydrochloride Form CS1], the “time for which the form is stable” value ([1]; 25° C./60% RH) was “at least 1 months”, the “Change of crystalline form” value ([1]; 25° C./60% RH, One month) was “Unchanged” and the “time for which the form is stable” value ([1]; 25° C./60% RH, listed as hydrochloride Form CS1) was “at least 1 months”. For the same compound, the “time for which the form is stable” value ([1]; 40° C./75% RH) was “at least 1 month”, the “Change of crystalline form” value ([1]; 40° C./75% RH, One month) was “Unchanged” and the “time for which the form is stable” value ([1]; 40° C./75% RH, listed as hydrochloride Form CS1) was “at least 1 month”. The purities after storage [1] was “above 98%” and the “crystalline form change after grinding” value [5] was “no form change is observed; also recorded: No crystalline form change”.
With `O=C(O)[C@H]1C2CCC(CC2)[C@@H]1Nc1nc(-c2c[nH]c3ncc(F)cc23)ncc1F` [Free Form Form A in CN105849100A, reference compound] the “Solubility FaSSIF” value ([2]; FaSSIF pH=6.5, 1 hour) was 7 µg/mL (≈ 17.5 µM), the “Solubility FaSSIF” value ([2]; FaSSIF pH=6.5, 4 hours) was 13 µg/mL (≈ 32.5 µM) and the “Solubility FaSSIF” value ([2]; FaSSIF pH=6.5, 24 hours) was 31 µg/mL (≈ 77.6 µM). The “Solubility FeSSIF” value ([2]; FeSSIF pH 5.0, 1 hour) was 18 µg/mL (≈ 45.1 µM), the “Solubility FeSSIF” value ([2]; FeSSIF pH 5.0, 4 hours) was 30 µg/mL (≈ 75.1 µM) and the “Solubility FeSSIF” value ([2]; FeSSIF pH 5.0, 24 hours) was 57 µg/mL (≈ 143 µM).
In the case of `O=C(O)[C@H]1C2CCC(CC2)[C@@H]1Nc1nc(-c2c[nH]c3ncc(F)cc23)ncc1F` [VX-787, (2S,3S)-3-((5-Huoro-2-(5-fluoro-1.171-pyrrolo[2,3-b]pyridin-3-yl)pyrimidin-4-yl)amino) bicyclo[2.2.2]octane-2-carboxylic acid], the tolerance [6] is given as “good tolerance” and the “virological and clinical evaluation of influenza virus infection” value [7] is given as “statistical significance”.
